Assay [1] deals with Fibronectin secretion from lung carcinoma cells (H460). The experiment in a line: Fibronectin secretion (Western blot), H460 cells. It is filed as cell-based, human. The conditions noted are these: Homo sapiens, NCI-H460, H460 cells, 10 ug/ml. A general note: A western blot detects proteins with antibodies after separation by electrophoresis.
The test system of assay [2] is Fibronectin secretion from bladder carcinoma cells (HTB-9). Description: Fibronectin secretion (Western blot), HTB-9 cells. It is filed as cell-based, human. The conditions noted are these: 10 ug/ml; for inhibition at 10 µg/mL: Homo sapiens.
Assay [3] concerns Fibronectin secretion from brain glioblastoma T98G cells. Description: Fibronectin secretion (Western blot), T98G cells. It is filed as cell-based, human. The conditions noted are these: for inhibition at 10 µg/mL: Homo sapiens, 10 ug/ml.
Assay [4] concerns Fibronectin secretion from skin SK-Mel-5 cells. Description: Fibronectin secretion (Western blot), SK-MEL-5 cells. It is filed as cell-based, human. The conditions noted are these: for inhibition at 10 µg/mL: Homo sapiens, 10 ug/ml.
The subject of assay [5] is Fibronectin secretion from liver HepG2 cells. The experiment in a line: Fibronectin secretion (Western blot), HepG2 cells. It is filed as cell-based, human. To be noted: 10 ug/ml; for inhibition at 10 µg/mL: Homo sapiens, HepG2, HepG2 cells; for % inhibition of Fibronectin secretion: HepG2 cells.
Assay [6] concerns Fibronectin secretion from ES2 cells. Description: Fibronectin secretion (Western blot), ES2 cells. To be noted: for inhibition at 10 µg/mL: Homo sapiens, ES-2, ES2 cells; for % inhibition of Fibronectin secretion / Fibronectin secreted / FN band intensity, % of DMSO control: ES2 cells. It is filed as cell-based, human. As for the experimental part: Inhibition of Fibronectin secretion is physiological and the determination of its quantity is based on the following criteria: • 1. Fibronectin is secreted from viable cells. Only cell with over 85% viable cells after drug-treatment are employed in these experiments. The viable cells were determined by MTT assay. • 2. For comparison, the immuno-band intensity from each samples are normalized with cell mass. The cell mass was determined by the MTT assay and is assigned as a MTT unit for each cell sample.
Cells: ES2 cells were grew in T-25 flask with RPMI 1640 medium over night before drug-treatment. Drug-treatment: cells cultures were replaced with fresh RPMI medium with Xanifolia-Y (10 ug/ml final concentration) or DMSO (as control) at 0 hour. At 1, 2, 4, 8 and 24 hour, aliquot of culture medium was taken out for Fibronectin determination. Fibronectin was determined by Western blot with monoclonal antibody (SIGMA) specific to human Fibronectin only.
Drug-treatment: cells cultures were replaced with fresh RPMI medium containing Xanifolia-Y (10 ug/ml final concentration) or DMSO (as control) at 0 hour. At 4 hours (A) or 8 hour (B), culture medium was replaced with fresh culture medium without drug. At 2, 4, 8 and 24 hour, aliquot of culture medium was taken out for Fibronectin determination. Fibronectin (FN) was determined by Western blot with monoclonal antibody (SIGMA) specific only to human Fibronectin.
(§1) Drug-treatment: cells cultures were replaced with fresh RPMI medium containing Xanifolia-Y (10 ug/ml final concentration) or DMSO (as control) at 0 hour. At 2, and 18 hour, aliquot of culture medium was taken out for Fibronectin determination (Western blot method). Cell viability at 18 hours was determined by MTT assay. Cultures were replaced with RPMI medium with MTT and incubated for an hour. The formation of formazan was dissolved in DMSO and OD at 570 nm was measured.
Cells and Drug-treatment: same as previous experiments. After 7 or 24 hours, aliquot of culture medium was taken out for Fibronectin determination (Western blot method). Cell viability at 24 hours was determined by MTT assay.
Cells: ES2 cells were grew in RPMI 1640 medium over night before drug-treatment. Drug-treatment: cells cultures were replaced with fresh RPMI medium containing DMSO (as control) [D]; Xanifolia-Y (10 ug/ml) [Y]; or Paclitaxel 10 or 50 ng/ml [T10, ro T50]. After 24 hours, aliquot of culture medium was taken out for Fibronectin determination (Western blot method). Cell viability at 24 hours was determined by MTT assay.
The amount of Fibronectin secreted by cells into medium was determined by Western blot assay. The amount of Fibronectin secreted per cells basis was determined by dividing the Western-band intensity with the MTT unit.
Western Blot: Spent culture medium (0.6 ml) was mixed with SDS sample buffer (0.2 ml), boiled for 3 minutes before loading to SDS gel. Samples (60 ul/lane) were applied to a 6% SDS gel and electrophoresis was conducted with 100 volts for 2 hours. Protein was transferred to a nitrocellulose paper electrophoretically (30 min at 100 volts). The Western blot was incubated with the first antibody (mouse anti-FN, specific to human FN, SIGMA F0916) and second antibody (Anti-mouse IgG AP conjugated, Promega S3721). The immunobands were developed with BCIP/NBT color development system (Promega S3771).

The next assay concerns ES2(ovarian) cells. Description: MTT assay ES2. It is filed as cell-based, human. As for the experimental part: (§2) MTT Assay. The procedure for MTT assay followed the method described by Carmichael et al. (1987) with modifications. The cells were seeded into a 96-well plate at concentration of 10,000/well for HTB-9, HeLa, H460, HCT116, T98G and OVCAR-3), 15,000/well for DU145, MCF-7, HepG2 and U2OS), and 40,000/well for K562 for 24 hours before drug-treatment. The cells were then exposed to the drugs for 48 hours (72 hours for HepG2 and U2OS, and 96 hours for MCF-7). After the drug-treatment, MTT (0.5 mg/mL) was added to cultures and incubated for an hour. The formazan (product of the reduction of tetrazolium by viable cells) formed and was dissolved with DMSO and the O.D. at 490 nm, and was measured by an ELISA reader. The MTT level of the cells before drug-treatment was also measured (T0). The % cell-growth (% G) is calculated as: % G=(TD−T0/TC−T0)×100(1), where TC or TD represents O.D. readings of control or drug-treated cells. When T0>TD, then the cytotoxicity (LC) expressed as % of the control is calculated as: % LC=(TD−T0/T0)×100(2).
Methods: ES2 cells were exposed to (i) Xanifolia-Y with concentrations of 40, 20, 10, 5, 2.5, and 1.25 ug/ml; or (ii) Paclitaxel with concentrations of […]; or (iii) Combined Xanifolia-Y and Paclitaxel with concentrations of each drug in same order (for example, 40 ug/ml Y plus 10 ng/ml T; 20 ug/ml Y plus 5 ng/ml T, etc. please see FIG. 28). Cells growth under these conditions was determined by the MTT assay.
as §1

For another assay, the system named is tumor growth. The experiment in a line: MTT anticancer activity of Y, X and hydrolysis products (FIG. 4C). It is filed as cell-based. As for the experimental part: as §2
(A) Alkaline Hydrolysis of Xanifolia-Y: 20 mg of Xanifolia-Y was dissolved in 0.5 mL of 1M NaOH. The solution was incubated in an 80° C. water bath for 4 hours. It was cooled to room temperature before being neutralized with 0.5 mL 1 N HCl (adjusted pH to about 3). The mixture was extracted with 2 mL 1-butanol 3 times. The butanol fractions were collected and lyophilized. The hydrolyzed saponin was further purified with HPLC in a C-18 column eluted with 25% acetonitrile.
(B) Acid Hydrolysis of Xanifolia-Y: 15 mg Xanifolia-Y was dissolved in 1 mL of Methanol. 1 mL of 2N HCl was then added. The mixture was refluxed in an 80° C. water bath for 5 hours. The solution was then neutralized by adding 2 mL of 1N NaOH (to a final pH 3-4). The aglycone was then extracted with ethylacetate 3 mL×3. The extracts were collected and pooled. Further isolation of aglycone (sugar-removed Xanifolia-Y) was achieved by HPLC with isocratic elution of 80% acetonitrile.

Regarding `C/C=C(/C)C(=O)O[C@@H]1C(O)[C@H](O[C@H]2[C@H](OC(C)=O)[C@@]3(CO)C(CC2(C)C)C2=CCC4[C@@]5(C)CC[C@H](O[C@@H]6OC(C(=O)O)[C@@H](O)[C@@H](O[C@@H]7O[C@@H](CO)[C@@H](O)C7O)C6O[C@@H]6OC(CO)[C@H](O)[C@@H](O)C6O)C(C)(C)C5CC[C@@]4(C)[C@]2(C)C[C@H]3O)OC(C)[C@@H]1OC(=O)/C(C)=C\C` (stereo partly drawn) [Xanifolia Y1, 3-O-[β-D-galactopyranosyl (1→2)]-α-L-arabinofuranosyl (1→3)-β-D-glucuronopyranosyl-21-O-(3,4-diangeloyl)-α-L-rhamnophyranosyl-22-O-acetyl-3β,16α, 21β, 22α, 28-pentahydroxyolean-12-ene], the inhibition at 10 µg/mL was 13% in assay [1]; 50% in assay [2]; 40% in assay [3]; 10% in assay [4]; 33% in assay [5]; 41% in assay [6] (10 ug/ml).

`C/C=C(/C)C(=O)O[C@H]1[C@H](OC(=O)C(C)C)[C@@]2(CO)C(CC1(C)C)C1=CCC3[C@@]4(C)CC[C@H](O[C@@H]5OC(C(=O)O)[C@@H](O)C(O[C@@H]6O[C@@H](CO)C(O)C6O)C5O[C@@H]5OC(CO)[C@H](O)C(O)C5O)C(C)(C)C4CC[C@@]3(C)[C@]1(C)[C@@H](O)[C@H]2O` (stereo partly drawn) [Xanifolia Y0, 3-O-[β-D-galactopyranosyl(1→2)]-α-L-arabinofuranosyl(1→3)-β-D-glucuronopyranosyl-21-O-angeloyl, 22-O-(2-methylpropanoyl)-3β, 15α, 16α, 21β, 22α, 28-hexahydroxyolean-12-ene]: the inhibition at 10 µg/mL came to 22% in assay [1]; 32% in assay [2]; 22% in assay [3]; 27% in assay [4]; 40% in assay [5]; 34% in assay [6] (10 ug/ml).

For `C/C=C(/C)C(=O)O[C@H]1[C@H](OC(=O)/C(C)=C\C)[C@@]2(CO)C(CC1(C)C)C1=CCC3[C@@]4(C)CC[C@H](O[C@@H]5OC(C(=O)O)[C@@H](O)C(O[C@@H]6OC[C@@H](O)C(O)C6O)C5O[C@@H]5OC(CO)[C@H](O)C(O)C5O)C(C)(C)C4CC[C@@]3(C)[C@]1(C)C[C@H]2O` (stereo partly drawn) [Ba1], the inhibition at 10 µg/mL was determined as 19% in assay [1]; 25% in assay [2]; 26% in assay [3]; 10% in assay [4]; 33% in assay [5]; 30% in assay [6] (10 ug/ml).

For beta-Escin [reference compound], the “% inhibition of Fibronectin secretion” value was 47% in assay [2]; 66% in assay [3] (20 ug/ml); 17% in assay [4] (20 ug/ml); “have inhibition effect” in assay [5] (listed as ES); 44% in assay [5] (listed as β-ES); 7% in assay [6] (10 ug/ml). For the same compound, the “% inhibition of Fibronectin secretion” value in assay [6] (10 ug/ml, listed as β-ES) was determined as 19%; in assay [6] (20 ug/ml), 48%. In addition, the “growth of cells compared to the DMSO control (MTT)” value in the assay on ES2(ovarian) cells (ES2, 10 ug/ml (F13)) was determined as 90%; in the assay on ES2(ovarian) cells (ES2, 20 ug/ml (F13)), 82%. The figures for the “Fibronectin secreted / FN band intensity, % of DMSO control” value in assay [6] (10 ug/ml) and in assay [6] (20 ug/ml) were 93% and 52%, respectively.

Regarding `C/C=C(/C)C(=O)O[C@H]1[C@H](O)[C@@]2(COC(=O)C(C)CC)C(CC1(C)C)C1=CCC3[C@@]4(C)CC[C@H](O[C@@H]5OC(C(=O)O)[C@@H](O)C(O[C@@H]6O[C@@H](CO)C(O)C6O)C5O[C@@H]5OC(CO)[C@H](O)C(O)C5O)C(C)(C)C4CC[C@@]3(C)[C@]1(C)[C@@H](O)[C@H]2O` (stereo partly drawn) [Xanifolia Y7, 3-O-[β-D-galactopyranosyl-(1→2)]-α-L-arabinofuranosyl-(1→3)-β-D-glucuronopyranosyl-21-O-angeloyl-28-O-2-methylbutanoyl-3β, 15α, 16α, 21β, 22α, 28-hexahydroxyolean-12-ene], the inhibition at 10 µg/mL was 18% in assay [1]; 60% in assay [2]; 24% in assay [3] (T98G); 10% in assay [5]; 34% in assay [6] (10 ug/ml).

Turning to `CC1O[C@@H](OC2[C@H](OC3[C@H](O[C@H]4C(O[C@@H]5OC(CO)[C@H](O)[C@@H](O)C5O)[C@H](O[C@H]5CC[C@@]6(C)C(CC[C@]7(C)C6CC[C@]68O[C@H](O)[C@]9(C6CC(C)(C)[C@@H](O)[C@@H]9O)[C@H](O)C[C@]87C)C5(C)C)OC(C(=O)O)[C@H]4O)OC(CO)[C@H](O)[C@H]3O)OC(C)[C@H](O)[C@@H]2O)C(O)[C@@H](O)[C@H]1O` (stereo partly drawn) [AKOH-Mb5], the “anticancer activity after alkaline hydrolysis” value with tumor growth is “lost anticancer activity”.

By inhibition is commonly meant the relative decrease from the control value, in per cent.

The values are drawn from patent US10213451B2, “Methods and compounds for modulating the secretion or expression of adhesion proteins or angiopoietins of cells” (PACIFIC ARROW LIMITED, priority 2004, dated 2019).
